Converted amounts (≈) assume the structure as drawn. Where a name gives a salt, the structure may show the parent alone. Read-outs that look alike come from different tables or passages of the source.
Tests used:
L1210 cells = assay: L1210 in vitro cell growth inhibition; format: cell-based; details: Mus musculus, 72 h; L1210 murine leukemia cells, three days incubation, 50% inhibition of growth; read-out: L1210 in vitro ID50
Method: Another test protocol uses L1210 cells, a murine leukemia cell line, grown in RPMI 1640 supplemented with 5% fetal bovine serum and gentamicin ([…]). Drug dilutions are prepared in the appropriate solvent and 20 µl of each dilution are added to 24-well Linbro tissue culture plates, followed by the addition of 2.0 ml of cell suspension containing 3 x 10^4 cells per ml. Solvent and medium controls are included in each test. After incubation at 37°C for three days in 5% CO2, the contents of each well are removed and the cells counted in a ZBI Counter counter. Percent growth are calculated relative to the controls and the levels of drug activity are expressed as ID50 in moles per liter.

[1] = system: lymphocytic leukemia P388; assay: in vivo lymphocytic leukemia P388 test; details: Mus musculus, P388, ip, 120 h, mice, survival time treated/control, read-out: P388 in vivo T/C×100; for response vs control in vivo at 12.5 mg/kg: Dose 12.5 mg/kg intraperitoneally once daily for five days; for response vs control in vivo at 25 mg/kg: Dose 25 mg/kg intraperitoneally once daily for five days; for response vs control in vivo at 6.25 mg/kg: Dose 6.25 mg/kg intraperitoneally once daily for five days
Method: Another test protocol is the in vivo lymphocytic leukemia P388 test. The animals used are either male or female CD2F, mice. There are six or seven animals per test group. The tumor transplant is by intraperitoneal injection of dilute ascitic fluid containing cells of lymphocytic leukemia P388. The test compounds are administered intraperitoneally once daily for five consecutive days at various doses following tumor inoculation. The animals are weighed and survivors are recorded on a regular basis for 30 days. A compound is designated "toxic" if, at a given dose, all animals died prior to four days after the first injection of drug. A ratio of survival time for treated (T)/control (C) animals is calculated. A criterion for efficacy is a ratio T/C times 100 greater than or equal to 125. See Cancer Chemotherapy Reports, Part 3, 3, 1 (1972) for a comprehensive discussion of the protocol.

Salmonella typhimurium = assay: in vitro antibacterial (ABMF) microdilution susceptibility test; format: cell-based; details: Salmonella enterica, Mueller-Hinton broth microdilution, 37°C, 16-24 hours, read-out: ABMF Minimal Inhibitory Concentration (µ/ml) S. typh.
Source text: (§1) Still another test protocol is the in vitro antibacterial (ABMF) test which is a recognized standard microdilution susceptibility procedure in Mueller-Hinton broth against Gram-positive and Gram-negative bacterial test organisms. The procedure is a modification of a state-of-the-art procedure reported in Manual of Clinical Microbiology, Lennette, E. H., ed., by Barry, A. L. and C. Thornsberry at pages 463-474 and by Gavan, T. L. and A. L. Barry at pages 459―462, American Society for Microbiology, Washington, 1980.
(§2) In the test, a given bacterial culture is used to inoculate individual test wells of microdilution trays containing growth medium and test compound, the latter in a microdilution series: 1000, 333.111, 37,12, 4, 1.4, and 0.46 micrograms per milliliter. […] For convenience, values are reported for Escherichia coli, Corynebacterium Sp. ATCC 21698, Salmonella typhimurium, Streptococcus pneumoniae, and Rhodotorula aurantiaca.

Streptococcus pneumoniae = assay: as above; format: cell-based; details: Mueller-Hinton broth microdilution, 37°C, 16-24 hours, read-out: ABMF Minimal Inhibitory Concentration (µ/ml) S. pneum.
Source text: as §1, §2

Rhodotorula aurantiaca = assay: as above; format: cell-based; details: Buckleyzyma aurantiaca; Mueller-Hinton broth microdilution, 37°C, 16-24 hours; read-out: ABMF Minimal Inhibitory Concentration (µ/ml) R. aurant
Source text: as §1, §2

Escherichia coli = assay: as above; format: cell-based; details: read-out: ABMF Minimal Inhibitory Concentration (µ/ml) E. coli
Source text: as §1, §2

[2] = system: Corynebacterium Sp. ATCC 21698; assay: as above; format: cell-based; details: ATCC21698, Mueller-Hinton broth microdilution, 37°C, 16-24 hours, read-out: ABMF Minimal Inhibitory Concentration (µ/ml) Coryn. sp.
Source text: as §1, §2

[3] = Mueller-Hinton broth microdilution, 37°C, 16-24 hours

SMILES	IC50 (L1210 cells) [nM]	response vs control in vivo at 12.5 mg/kg [1] [%]	response vs control in vivo at 25 mg/kg [1] [%]	MIC (Salmonella typhimurium) [µg/mL]	MIC (Streptococcus pneumoniae) [µg/mL]	MIC (Rhodotorula aurantiaca) [µg/mL]	MIC (Escherichia coli) [µg/mL]	MIC [2] [µg/mL]	response vs control in vivo at 6.25 mg/kg [1] [%]	MIC (Escherichia coli; [3]) [µg/mL]
CCN(CC)CCn1nc2c3c(c(NCCN)ccc31)Oc1ccc(OC)cc1-2 [Example 6, 1-[2-[2-(Diethylamino)ethyl]-9-methoxy-2H-[1]benzopyrano-[4,3,2-cd]ndazole-5-yl]-1,2-ethanediamine, trihydrobromide]	1100	154	145	111	12.3	333	111	4.1		
CCN(CC)CCn1nc2c3c(c(NCCNCCO)ccc31)Oc1ccc(O)cc1-2 [Example 14]	48	272		> 33	11 (≈ 25.8 µM)	> 33		33 (≈ 77.5 µM)	236	11 (≈ 25.8 µM)
O=[N+]([O-])c1ccc2c3c(nn2CCN2CCCC2)-c2cc(O)ccc2Oc13 [Example 10, 5-Nitro-2[2-(1-pyrrolidinyl)ethyl]-2H-[1]benzopyrano[4,3,2-cd]indazole-9-ol, methanesulfonate]	3.5			1.4	< 0.46	1000		< 0.46		> 1000
CCN(CC)CCn1nc2c3c(c(N)ccc31)Oc1ccc(O)cc1-2.Cl.Cl [Example 12, 5-Amino-N,N-diethyl-9-hydroxy-2H-[1]benzopyrano[4,3,2-cd]indazole-2-ethanamine, dihydrochloride]	71	201	192	111	12.3	> 1000	111	12.3	167	
CCN(CC)CCn1nc2c3c(c([N+](=O)[O-])ccc31)Oc1cc(O)ccc1-2 [Example 20, 5-Nitro-2-[2-(diethylamino)ethyl]-2H-[1]benzopyrano[4,3,2-cd]indazol-8-0l, hydrochloride]	870			12.3	< 0.46	> 1000		< 0.46		1.4
COc1ccc2c(c1)-c1nn(CCN3CCCC3)c3ccc(N)c(c13)O2 [Example 9, 9-Methoxy-2-[2-(1-pyrrolidinyl)ethyl]-2H-[1]benzopyrano[4,3,2-cd]indazole-2-amine, monohydrochloride]	360			111	4.1	333		4.1		12.3
CCN(CC)CCn1nc2c3c(c([N+](=O)[O-])ccc31)Oc1cc(OC)ccc1-2 [Example 19, 5-Nitro-2-[2-(diethylamino)ethyl]-8-methoxy-2H [1]benzopyrano[4,3,2-cd]indazol, hydrochloride]	2200			37	< 0.46	333		< 0.46		< 0.46
COc1ccc2c(c1)-c1nn(CCN3CCCC3)c3ccc([N+](=O)[O-])c(c13)O2.Cl [Example 8, 9-Methoxy-5-nitro-2-[2-(1-pyrrolidinyl)ethyl]-2H-[1]benzopyrano[4,3,2-cd]indazole, monohydrochloride]	2000			37	< 0.46	111		< 0.46		> 1000

Reference: EP0172632B1, “Benzopyrano[4,3,2-cd]indazole compounds, processes for their production and pharmaceutical compositions comprising the compounds” (WARNER-LAMBERT COMPANY, priority 1984, dated 1986)
